For one series, the system named is human red blood cells. As to the kind of experiment: Hypochlorite (HOCl) hemolysis of human red blood cells. In kind it is cell-based. To be noted: activity compared to ascorbic acid. On the procedure:
Hypochlorite (HOCl) hemolysis of human red blood cells. The reaction is based on the ability of O2 radicals to lyse red blood cells. Antioxidant compounds such as ascorbic acid and 4-hydroxy-2,2,6,6-tetramethyl-piperidine-1-oxyl (TEMPOL) prevent membrane damage in a dose dependent manner. All compounds were dissolved at a concentration of 5 mg/ml and aliquots were tested for their ability to prevent lysis.

Series [1] in a line: Chemical chemiluminescence (without cells): Luminol+SIN-1+selenite+BSA. Also on record: concentration or dose not given beside the values. To be noted: compared to ascorbic acid. From the text: Luminescence was generated in vials containing the following compounds: Luminol+SIN-1(generator of NO radicals)+selenite+BSA. This reaction is inhibited by scavengers of peroxynitrites, as well as scavengers of NO and O2 free radicals.

The test system of another series is neutrophils. As to the kind of experiment: PMA-induced oxidative burst in neutrophils (DCFH, FACS). Format: cell-based. The settings on record: PMA 10 ng/ml 30 min, compared to ascorbic acid. On the procedure:
PMA-induced oxidative burst in neutrophils: The cells were activated with PMA (10 ng/ml) for 30 min and incubated with 2,7-dichlorodihydrofluorescin diacetate (DCFH), which, in the presence of O2 radicals and peroxynitrites, is converted to a fluorescent compound. The fluorescent cells are detected in a cell sorter (FACS).

The next series deals with EAE. As to the kind of experiment: Treatment of EAE with TEMPOL (FIG. 1). Format: in vivo, mice. The settings on record: Tempol 100 mg and 200 mg groups. From the text: The dosage of TEMPOL used here was […] higher than the dosages of compounds 6 and 7 below. The experiments were terminated arbitrarily at day 18 post-immunization. The course of EAE in different groups of animals varies. Consequently, recovery time is variable, typically by two or three days.

Series [2] deals with EAE (PLP 139-151 challenge). The series can be described thus: PLP induced experimental allergic encephalomyelitis (EAE) in SJL mice. The settings on record: for effect on EAE, in words: 50 mg/kg/day po. Format: in vivo. Also on record: key to Mean maximal score / Mean score (group mean score): clinical score 0 = no signs to 6 = death. On the procedure:
Female SJL mice (12 weeks) were inoculated with the encephalitogenic peptide of proteolipid protein (PLP 139-151) synthesized to a purity of 70% by Sigma (Israel). 150 μg of the peptide were emulsified in complete Freund's adjuvant (CFA) (Difco laboratories), supplemented with killed mycobacteria (5 mg/ml) and pertussis toxin (200 ng) (Sigma), given subcutaneously at day of inoculation only.
Mice were kept SPF conditions and given water and food ad libitum. Mice were daily observed for clinical signs from day 10 to day 18-21 post inoculation.
The clinical score used is as follows: 0—no clinical signs; 0.5—loss of right reflex; 1—distal limp tail; 2—complete limp tail; 3—ataxia; 4—early paralysis (one hind limb); 5—complete hind legs paralysis and moribund state; 6—death.
Compounds were dissolved in 2-hydroxypropyl beta cyclodextrin (40% water solution). Treatment started at day 1 post inoculation. The compounds (50 mg/kg) and vehicle were given orally by gavage every day until day 20 post inoculation.
Compounds 6 and 7 were given orally to mice challenged with PLP, at a dose of 50 mg/kg/day, p.o. The results are presented in Table 3a and in FIGS. 2 and 3. The effect of Compound 6 on all parameters of the disease was more pronounced as compared to the control group.

A short description of series [3]: Oxidation potential by cyclic voltametry. In kind it is physicochemical. The settings on record: for oxidation potential (cyclic voltametry), in words: pH 7.2. On the procedure: (§1) Reaction with 1,1-diphenyl-2-picrylhydrazyl (DPPNH) is indicative of radical scavenging ability. The compounds were mixed with DPPNH (in equimolar amounts) and the consumption rate of DPPNH was measured. Compounds 3 and 4 reacted instantaneously, consuming 70% and 20% of DPPNH respectively (Table 2). The oxidation potential of the compounds was measured by cyclic voltametry.

The nature of series [4]: Reaction with 1,1-diphenyl-2-picrylhydrazyl (DPPNH), radical scavenging. In kind it is physicochemical. The settings on record: equimolar amounts; for DPPNH: radical scavenging, grades 0 to +++, key not given; for DPPNH consumed: reacted instantaneously. On the procedure: as §1
Series [5] relates to EAE (PLP 139-151 challenge). As to the kind of experiment: PLP induced experimental allergic encephalomyelitis (EAE) in SJL mice. Format: in vivo. The settings on record: single dose daily, po.
In series [6] the test system is EAE (MSCH emulsion induction). As to the kind of experiment: EAE in CSJL mice, acute model (MSCH/CFA induction). To be noted: for Mortality / Incidence: 30 days, CSJL mice; for Mean Duration: duration of disease; for % inhibition 3: inhibition of GMS vs control; for % inhibition 2: inhibition of MMS vs control; for % inhibition 1: inhibition of incidence vs control; for GMS value: mean group score; for MMS value: mean maximal score. Format: in vivo.

The mark [7] stands for this setting: Table 3b: 50 mg/kg, single dose daily, po.
The mark [8] stands for this setting: Table 3b: 50 mg/kg, single dose daily, po, only mice that develop disease.
Where [9] appears, read: Table 3b: 12.5 mg/kg, single dose daily, po.
Where [10] appears, read: Table 3b: 100 mg/kg, single dose daily, po.
[11] abbreviates: Table 3a: 50 mg/kg/day po, single dose daily, PLP challenge.
[12] abbreviates: 25.0 mg/kg × 2 per day (single dose on weekends), oral.
[13] abbreviates: Table 3a: 50 mg/kg/day po, PLP challenge, mean ± SEM.

Structures are written as SMILES.

In general, melting point refers to the temperature, or range, at which the solid turns liquid.

`CC1(C)CC(O)CC(C)(C)N1[O]` [4-hydroxy-2,2,6,6-tetramethyl-piperidine-1-oxyl, reference compound] showed an HOCl % lysis in the series with human red blood cells of 50%. The “% Chemiluminescence inhibition” value in series [1] worked out at 78%. Further, the “PMA % of cells activated” value in the series on neutrophils was 80%. Also, the “manifestation of clinical signs of EAE, in words” value with EAE is reported as “has the ability to inhibit the manifestation of clinical signs of EAE”.
For the compound `O=C1O[C@H]([C@@H](O)CO)C(O)=C1O` [Ascorbic acid, reference compound], in the series on human red blood cells, the HOCl % lysis amounted to 100%. Besides, the “% Chemiluminescence inhibition” value in [1] was 100%. Also, the “PMA % of cells activated” value with neutrophils came to 100%.
Turning to `Nc1cc(=O)[nH]c(=O)n1C1CCc2ccccc21` (centres unmarked) [Compound 1, 6-amino-1-indan-1-yl-1H-pyrimidine-2,4-dione], in series [2] (setting [7]), the Incidence was 6/8, the Mean disease duration amounted to 5.57 ± 1.72, the Mean maximal score is listed as 4.2 and the Mean score came out at 3.4 ± 0.2. Further, the “Mean day of onset” value in series [2] (setting [8]) came to 12.5 ± 0.7. This compound also registered an HOCl % lysis in the series on human red blood cells of 75%. In addition, the “oxidation potential (cyclic voltametry), in words” value (from here on “oxidation potential”) in series [3] is given as “reducing action, but to a lesser extent than compound 3”. The “% Chemiluminescence inhibition” value in [1] is given as 0%. Moreover, the “PMA % of cells activated” value with neutrophils is on record as 0%. The DPPNH in series [4] is given as 0.
For `Nc1c(N)n(C2CCc3ccccc32)c(=O)[nH]c1=O` (centres unmarked) [Compound 3, 5,6-diamino-1-indan-1-yl-1H-pyrimidine-2,4-dione], the melting point was 218 °C (dec.). The same compound gave an HOCl % lysis in the series with human red blood cells of 72%. The “oxidation potential” value in [3] is on record as “strong electron donor activity”. Further, in [1], the “% Chemiluminescence inhibition” value is given as 38%. Moreover, the “PMA % of cells activated” value in the series with neutrophils is given as 30%. In addition, the DPPNH consumed in series [4] is 70%.
Turning to `Nc1c(NC2CCc3ccccc32)[nH]c(=O)[nH]c1=O` (centres unmarked) [Compound 4, 5-amino-6-(indan-1-ylamino)-1H-pyrimidine-2,4-dione], the melting point is more than 150 °C. In [3] (anodic wave, grades 0 to +++, key not given), the “Cyclic voltametry - AW” value was 0. In addition, in series [4], the DPPNH consumed turned out to be 20%.
For `O=c1cc(NC2CCc3ccccc32)[nH]c(=O)[nH]1` (centres unmarked) [Compound 5, 6-(indan-1-ylamino)-1H-pyrimidine-2,4-dione], the Incidence is listed as 18/18 in series [2] (setting [9]), 14/16 in [2] (setting [7]) and 5/5 in [2] (setting [10]). Besides, the Mean maximal score in series [2] (setting [9]) is listed as 4.5; in series [2] (setting [7]), 5; in series [2] (setting [10]) it was 5. In addition, the results for the Mean disease duration in series [2] (setting [7]), in series [5] (Table 3b: 12.5 mg/kg) and in [5] (Table 3b: 100 mg/kg) were 5.64 ± 1.55, 6.06 ± 1.7 and 4.4 ± 1.7, respectively. Further, the Mean score in series [2] (setting [7]) stood at 3.48 ± 0.3; in [2] (setting [10]) it was 3.2 ± 0.25; in series [5] (Table 3b: 12.5 mg/kg), 3.8 ± 0.35. In addition, the “Mean day of onset” value in series [2] (setting [8]) came out at 12.9 ± 1.35; in [2] (Table 3b:, single dose daily, po, only mice that develop disease), 11.8 ± 1.1; in series [5] (Table 3b: 12.5 mg/kg, only mice that develop disease) it was 12 ± 0.68. The same compound showed an HOCl % lysis in the series on human red blood cells of 100%. The “oxidation potential” value in series [3] is given as “reducing action, but to a lesser extent than compound 3”. Further, the “% Chemiluminescence inhibition” value in [1] turned out to be 75%. The “PMA % of cells activated” value with neutrophils came out at 80%. Further, in series [4], the DPPNH was found to be 0.
In the case of `CN(C)c1cccc2c1CCC2Nc1cc(=O)[nH]c(=O)[nH]1.Cl` (centres unmarked) [Compound 6, 6-(4-dimethylamino-indan-1-ylamino)-1H-pyrimidine-2,4-dione HCl], the “effect on EAE, in words” value in series [2] (PLP challenge) is recorded as “significant beneficial effect on EAE”. In series [2] (setting [11]), the “(# dead)” value was “(4)” and the Incidence is listed as 10/14. Besides, the Mortality in series [6] (setting [12]) is reported as 4/10. Besides, in series [6] (25.0 mg/kg × 2 per day, oral), the Incidence is reported as 7/10. Also, in series [6] (50.0 mg/kg once a day, oral), the Incidence was 7/10, the Mortality is given as 5/10, the “Mean Duration” value came to 11.3 ± 8.5 days and the “% inhibition 3” value is listed as 31.3%. Moreover, in [6] (50.0 mg/kg once a day, oral), the “% inhibition 2” value is on record as 26.8%, the “% inhibition 1” value worked out at 30.0%, the GMS value is 2.2 ± 1.8 and the MMS value is 3.0 ± 2.3. Also, in series [6] (25.0 mg/kg × 2, oral), the “Mean Duration” value came out at 11.1 ± 8.6 days, the “% inhibition 3” value turned out to be 40.6%, the “% inhibition 2” value was found to be 34.1% and the “% inhibition 1” value was 30.0%. In series [6] (25.0 mg/kg × 2, oral), the GMS value came to 1.9 ± 1.9 and the MMS value is reported as 2.7 ± 2.2. Also, the HOCl % lysis in the series with human red blood cells is on record as 44%. Further, the “% Chemiluminescence inhibition” value in series [1] was determined as 56%.
For the compound `CN(C)c1ccc2c(c1)C(Nc1cc(=O)[nH]c(=O)[nH]1)CC2.Cl` (centres unmarked) [Compound 7, 6-(6-dimethylamino-indan-1-ylamino)-1H-pyrimidine-2,4-dione HCl], the “effect on EAE, in words” value in series [2] (PLP challenge) was “significant beneficial effect on EAE”. Besides, in [2] (setting [13]), the “Mean day of onset” value amounted to 14.8 ± 0.94, the Mean disease duration is given as 4.1 ± 0.84, the Mean maximal score was 4.3 ± 0.9 and the “Mean score (group mean score)” value is 1.6 ± 0.27. In series [2] (setting [11]), the “(# dead)” value was “(4)” and the Incidence is given as 11/14. In addition, the Mortality in series [6] (setting [12]) is 8/10. For the same compound, in series [6] (25.0 mg/kg × 2 per day, oral), the Incidence was 8/10. In series [6] (50.0 mg/kg once a day, oral), the Incidence is 7/10, the Mortality is recorded as 7/10, the “Mean Duration” value is recorded as 12.7 ± 8.8 days and the “% inhibition 3” value was determined as 15.6%. In [6] (50.0 mg/kg once a day, oral), the “% inhibition 2” value was 14.6%, the “% inhibition 1” value is 30.0%, the GMS value is reported as 2.7 ± 1.9 and the MMS value is given as 3.5 ± 2.4. For the same compound, in [6] (25.0 mg/kg × 2, oral), the “Mean Duration” value came to 13.9 ± 7.5 days, the “% inhibition 3” value is recorded as 9.4%, the “% inhibition 2” value is reported as 2.4% and the “% inhibition 1” value came out at 20.0%. For the same compound, in series [6] (25.0 mg/kg × 2, oral), the GMS value was found to be 2.9 ± 1.6 and the MMS value was found to be 4.0 ± 2.1. Moreover, the HOCl % lysis in the series with human red blood cells turned out to be 55%. The “% Chemiluminescence inhibition” value in series [1] was determined as 62%.
Turning to `CC1(C)CC(O)CC(C)(C)N1O` [N-Hydroxy-tetramethyl-4-piperidinol, reference compound], the HOCl % lysis in the series on human red blood cells was 52%. Moreover, the “% Chemiluminescence inhibition” value in [1] amounted to 42%. Further, the “PMA % of cells activated” value in the series on neutrophils is on record as 60%.
Consider `CC1(C)CC(O)CC(C)(C)N1` [Tetramethyl-4-piperidinol, reference compound], for which the HOCl % lysis with human red blood cells is 0%. Further, in series [1], the “% Chemiluminescence inhibition” value stood at 1.2%. Also, in the series with neutrophils, the “PMA % of cells activated” value is on record as 30%.

(Values after patent publication US20070021450A1, “Indanylamino uracils and their use as antioxidants and neuroprotectants” (priority 2004, published 2007).)
